# US20260373119A1, “NOVEL COMPOUND, AND COMPOSITION FOR PREVENTING OR TREATING HER2-POSITIVE CANCER, COMPRISING SAME” (EWHA UNIVERSITY - INDUSTRY COLLABORATION FOUNDATION, priority 2022, published 2026)
# What was measured:
# [1] = molecular target: MED23 wild-type (FLAG-tagged) (Homo sapiens, UniProt Q9ULK4); assay: LC-MS/MS protein-small molecule interaction, wild-type MED23; assay type: binding; details: internal standard
# Procedure: HEK293 cells were seeded in a […] and incubated until they reached 70-80% confluency. The cells were transfected with p3Xflag-myc-CMV26-MED23^WT and p3Xflag-myc-CMV26-MED23^D400A/H449G plasmids for 24 hours, followed by lysis to obtain protein extracts. To isolate the candidate compound (YK1) bound to MED23, total lysates were incubated with YK1 for 4 hours and subsequently subjected to pulldown using FLAG-agarose beads (Sigma Aldrich, USA). The precipitated beads were washed at least three times to completely remove unbound compounds. To separate the candidate compound from the precipitated MED23, 50 μL of the sample was extracted with 1 mL of acetonitrile and centrifuged at 13,000 rpm at 4 °C for 10 minutes. The supernatant (1,000 μL) from each sample was transferred to a new tube and dried under nitrogen gas at 37 °C. For YK1 analysis, the residue was dissolved in 50 μL of ACN and vortexed for 10 minutes. […] The mixture was then extracted with 450 μL of ACN by ultrasonic treatment and vortex mixing. The candidate compound bound to MED23 was finally analyzed using an Agilent 6460 triple quadrupole mass spectrometer (Agilent Technologies, USA).
# [2] = molecular target: T1, ELF3-MED23 protein-protein interaction (Homo sapiens, UniProt Q9ULK4); assay: SEAP reporter assay, ELF3-MED23 PPI inhibition (293T kidney cells); assay type: cell-based; details: 10 μM; for inhibition at 10 µM: HEK-293T
# T1 construct: followed by the addition of either the candidate compound or MED23 protein constructs; endogenous in cells; host or cells: 293T kidney cells (MED23 endogenous; GAL4-ELF3 transfected)
# T1 sequence (Q9ULK4 1-1368): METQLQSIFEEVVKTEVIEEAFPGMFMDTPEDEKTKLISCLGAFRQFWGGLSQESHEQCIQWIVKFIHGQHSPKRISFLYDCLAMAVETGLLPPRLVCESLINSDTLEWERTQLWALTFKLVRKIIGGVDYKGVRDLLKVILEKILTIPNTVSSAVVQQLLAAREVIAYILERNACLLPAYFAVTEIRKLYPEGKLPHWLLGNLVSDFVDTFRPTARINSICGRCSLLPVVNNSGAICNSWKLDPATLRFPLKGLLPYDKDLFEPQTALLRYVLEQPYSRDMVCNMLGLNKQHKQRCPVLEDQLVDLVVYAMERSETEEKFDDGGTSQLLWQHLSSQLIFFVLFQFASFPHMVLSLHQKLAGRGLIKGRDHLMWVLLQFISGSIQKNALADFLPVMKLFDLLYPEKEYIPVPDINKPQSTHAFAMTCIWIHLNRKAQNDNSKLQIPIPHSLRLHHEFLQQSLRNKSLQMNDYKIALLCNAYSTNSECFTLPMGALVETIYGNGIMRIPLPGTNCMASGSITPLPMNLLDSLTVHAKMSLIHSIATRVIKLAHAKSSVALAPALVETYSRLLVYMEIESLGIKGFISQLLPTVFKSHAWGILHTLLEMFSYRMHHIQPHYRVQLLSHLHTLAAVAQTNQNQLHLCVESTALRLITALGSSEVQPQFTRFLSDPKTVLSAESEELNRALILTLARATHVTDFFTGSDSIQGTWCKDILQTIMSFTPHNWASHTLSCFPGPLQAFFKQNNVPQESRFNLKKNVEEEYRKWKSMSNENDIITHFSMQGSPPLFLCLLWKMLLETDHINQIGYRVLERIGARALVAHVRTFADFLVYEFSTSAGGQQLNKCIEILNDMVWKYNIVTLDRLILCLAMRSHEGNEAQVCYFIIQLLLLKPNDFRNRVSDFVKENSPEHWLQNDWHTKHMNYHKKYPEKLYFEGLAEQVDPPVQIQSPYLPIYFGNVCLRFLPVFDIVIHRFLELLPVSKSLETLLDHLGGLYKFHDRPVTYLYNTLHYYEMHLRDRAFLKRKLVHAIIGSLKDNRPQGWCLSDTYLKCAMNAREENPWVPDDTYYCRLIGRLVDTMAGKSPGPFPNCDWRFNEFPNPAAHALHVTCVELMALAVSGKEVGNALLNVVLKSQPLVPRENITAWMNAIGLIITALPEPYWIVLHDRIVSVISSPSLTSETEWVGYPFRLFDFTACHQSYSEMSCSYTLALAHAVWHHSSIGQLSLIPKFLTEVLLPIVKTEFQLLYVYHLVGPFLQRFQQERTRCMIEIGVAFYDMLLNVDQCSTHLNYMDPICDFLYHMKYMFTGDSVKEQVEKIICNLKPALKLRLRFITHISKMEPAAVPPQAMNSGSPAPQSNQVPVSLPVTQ
# Procedure: To verify whether the D400 and H449 residues play a critical role in the ELF3-MED23 protein-protein interaction, a SEAP assay was performed. Specifically, 293T kidney cells were seeded at a density of 5×10^3 cells/well in a 96-well microplate (SPL, Korea) and cultured overnight. Subsequently, the cells were co-transfected with 100 ng of each plasmid using transfection-optimized medium (Welgene, Korea). The plasmids used included the SEAP reporter gene (pG5IL2SX) and GAL4-ELF3 expression vector (pBJ GAL4-ELF3). For transfection, the cells were incubated with WelFectQ (Welgene, Korea) for 3 hours, followed by the addition of either the candidate compound or MED23 protein constructs (pcDNA MED23^WT, K397A, D400A, H449G, and D400A/H449G). The treated cells were incubated for 12 hours. The candidate compound was added in an incubator at 5% CO2 and 37 °C, and the plate was incubated at 65 °C for 3 hours to inactivate all enzymes except SEAP (Secreted Alkaline Phosphatase). A mixture comprising 100 μL of substrate solution prepared with 1.19 μL of 0.1 M 4-methylumbelliferyl phosphate (Sigma, USA), 25 μL of inactivated medium, and 75 μL of double-distilled water was added, followed by the addition of 98.81 μL of 2 M diethanolamine (pH 10, Sigma, USA). The plate was incubated overnight at 37 °C. Subsequently, the fluorescence intensity was measured using a fluorometer (SPECTRAmax […], Molecular Devices, USA) at an excitation wavelength of 360 nm and an emission wavelength of 440 nm.
# To further elaborate on the above findings, small molecule compounds that could affect the ELF3-MED23 PPI were designed and synthesized. Specifically, non-essential side chains were removed from gefitnib, and compounds were designed to include both hydrogen bond donors and acceptors for the D400 and H449 residues of MED23, respectively (FIG. 4A). Specifically, chalcones and pyrazolines were selected as core scaffolds, and 25 compounds (11 chalcones and 14 pyrazoline-based compounds) were prepared. The ELF3-MED23 PPI inhibitory activity of all prepared compounds was measured using a SEAP assay.
# [3] = tested on: HeLa (HER2-negative cervical cancer cell line); assay: antiproliferative effect, HeLa; assay type: cell-based; details: Homo sapiens, 72 hours
# Procedure: (§1) The antiproliferative effects were measured after treating Compounds 1 to 22 for 72 hours on HCT15 (HER2-positive colorectal cancer cell line), NCI-N87 (HER2-positive gastric cancer cell line), T47D (HER2-negative breast cancer cell line), and HeLa (HER2-negative cervical cancer cell line). As a result, strong antiproliferative effects were generally observed in the NCI-N87 cell line (Table 2).
# (§2) The antiproliferative effects of the candidate compound, resulting from HER2 inhibition, were evaluated. Specifically, to confirm the anticancer effects of the candidate compound, cancer cells were seeded at a density of 10^4 cells/well in a 96-well cell culture plate for 20 hours. The cells were starved in serum-free media for 4 hours, followed by replacement with media containing the compound at specified concentrations. The cells were then incubated for 72 hours under conditions of 5% CO2 at 37 °C. Cell viability was determined by adding 5 μL of EZ-CytoX to each well and measuring absorbance at 450 nm. The measurements were performed using an ELISA Microplate Reader (VersaMax, Molecular Devices).
# [4] = tested on: T47D (HER2-negative breast cancer cell line); assay: antiproliferative effect, T47D; assay type: cell-based; details: Homo sapiens, 72 hours
# Procedure: as §1, §2
# [5] = tested on: HCT15 (HER2-positive colorectal cancer cell line); assay: antiproliferative effect, HCT15; assay type: cell-based; details: Homo sapiens, HCT-15, 72 hours
# Procedure: as §1, §2
# [6] = tested on: NCI-N87 (HER2-positive gastric cancer cell line); assay: antiproliferative effect, NCI-N87; assay type: cell-based; details: Homo sapiens, NCI-N87; 72 hours; HER2-positive
# Procedure: as §1, §2
# [7] = molecular target: T1, ELF3-MED23 protein-protein interaction; details: cited from earlier work; for PPI inhibitory activity relative to gefitinib: ELF3-MED23 PPI
# [8] = molecular target: T2, (His)6-MED23391-582 / FITC-ELF3129-145 peptide (Homo sapiens, UniProt Q9ULK4); assay: fluorescence polarization displacement assay; assay type: binding; details: 80 nM (His)6-MED23391-582, 10 nM FITC-ELF3129-145; Cheng-Prusoff; read-out: PPI inhibitory activity calculated based on Ki value
# T2 construct: 391-582 and fluorescein isothiocyanate (FITC)-labeled
# T2 sequence (Q9ULK4 391-582 limits assumed): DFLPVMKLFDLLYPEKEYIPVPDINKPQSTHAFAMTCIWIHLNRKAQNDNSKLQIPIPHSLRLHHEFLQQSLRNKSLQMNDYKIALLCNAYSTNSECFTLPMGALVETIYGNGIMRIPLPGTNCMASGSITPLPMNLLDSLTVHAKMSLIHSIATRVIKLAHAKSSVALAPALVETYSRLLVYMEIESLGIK
# Procedure: The samples, adjusted to a final volume of 50 μL, were incubated at room temperature for 30 minutes. Kd values were calculated using a least-squares non-linear fit method with Prism 6.0 software (GraphPad Software, USA). FP signals were measured in millipolarization (mP) units using an Infinite F200 PRO microplate reader (Tecan Group Ltd., Switzerland) at an excitation wavelength of 485 nm and an emission wavelength of 535 nm. For displacement analysis, graded concentrations of YK1 and unlabeled ELF3137-144 peptides were mixed with 80 nM (His) 6-MED23391-582 and 10 nM FITC-ELF3129-145.
# The effect of compound YK1 was confirmed by measuring the reduction in FP signals, using unlabeled peptides as a positive control. The IC50 of each compound was determined by fitting the data to a four-parameter logistic equation using the Table Curve 2D program (SPSS Inc.). The Ki value was calculated using the Cheng-Prusoff equation (Ki=IC50/1+([Ligand]/Kd))
Molecule,binding affinity to MED23 relative to candidate compound [1],inhibition at 10 µM [2] [%],IC50 [3] [µM],IC50 [4] [µM],IC50 [5] [µM],IC50 [6] [µM],known ELF3-MED23 PPI inhibition [7],PPI inhibitory activity relative to gefitinib [7],SEAP assay Inhibition (%) [2] [%],Ki [8] [µM]
"COc1ccc(C2CC(c3ccccc3O)=NN2C(C)=O)c2ccccc12 (centres unmarked) [Compound 18, 1-[3-(2-Hydroxyphenyl)-5-(4-methoxynaphthalen-1-yl)-4,5-dihydropyrazol-1-yl]-ethanone]",lower binding affinity to MED23,0,6.69 ± 0.4,29.28 ± 0.27,19.7 ± 0.05,> 50,–,–,–,–
"CC(=O)N1N=C(c2ccccc2O)CC1c1ccc(O)cc1 (centres unmarked) [Compound 19, 1-[5-(4-Hydroxyphenyl)-3-(2-hydroxyphenyl)-4,5-dihydropyrazol-1-yl]-ethanone]",–,39,> 50,> 50,> 50,> 50,–,–,–,–
"CC(=O)N1N=C(c2ccccc2O)CC1c1ccc(Cl)cc1 (centres unmarked) [Compound 20, 1-[5-(4-Chlorophenyl)-3-(2-hydroxyphenyl)-4,5-dihydropyrazol-1-yl]-ethanone]",–,45,> 50,> 50,> 50,> 50,–,–,–,–
"CC(=O)N1N=C(c2ccccc2O)CC1c1cccs1 (centres unmarked) [Compound 21, 1-[3-(2-Hydroxyphenyl)-5-thiophen-2-yl-4,5-dihydropyrazol-1-yl]-ethanone]",–,57,> 50,> 50,> 50,> 50,–,–,–,–
"COc1ccc(C2CC(c3ccccc3O)=NN2C(C)=O)cc1 (centres unmarked) [Compound 22, 1-[3-(2-Hydroxyphenyl)-5-(4-methoxyphenyl)-4,5-dihydropyrazol-1-yl]-ethanone]",–,63,> 50,> 50,40.3 ± 0.51,> 50,–,–,–,–
"COc1cc2ncnc(Nc3ccc(F)c(Cl)c3)c2cc1OCCCN1CCOCC1 [Gefitinib, gefitinib, reference compound]",–,85,–,–,–,–,inhibit ELF3-MED23 protein-protein interaction (PPI),–,–,–
CC(C)N(CC(O)COc1cccc2[nH]ccc12)C(=O)N1CCC(C2CCN(C(=O)C34CC5CC(CC(C5)C3)C4)CC2)CC1 (centres unmarked) [adamanolol],–,–,–,–,–,–,inhibit ELF3-MED23 protein-protein interaction (PPI),–,–,–
C=CC(=O)Nc1cc2c(Nc3ccc(F)c(Cl)c3)ncnc2cc1OCCCN1CCOCC1 [canertinib],–,–,–,–,–,–,inhibit ELF3-MED23 protein-protein interaction (PPI),superior PPI inhibitory activity compared to gefitinib,–,–
Cc1ccc(S(=O)(=O)n2ccc3c(OCC(O)CN(CCCCCN)C(=O)N4CCC(C5CCN(C(=O)C67CC8CC(CC(C8)C6)C7)CC5)CC4)cccc32)cc1 (centres unmarked) [wrenchnolol],–,–,–,–,–,–,inhibit ELF3-MED23 protein-protein interaction (PPI),–,–,–
"ELF3137-144: ELF3137-144 peptide (8 a.a.), amino acids 137-144 of ELF3 (SWIIELLE; UniProt P78545 137-144, looked up, fragment) [reference compound]",–,–,–,–,–,–,–,superior PPI inhibitory activity compared to gefitinib,53,0.78 ± 0.05
